In assay [1] the target is T1, hNav1.7 (Homo sapiens (Human), UniProt Q15858). The assay is described as follows: Tritiated compound binding to membranes from cells heterologously expressing hNav1.7 and the β1 subunit (Nav1.7 LBA). The following applies: competitive binding vs [3H]compound, membranes with hNav1.7 and β1 subunit; read-out: Nav1.7 LBA EVO IC50. The protocol:
Example 93A. Tritiated Compound Binding to Membranes Isolated from Cells that Heterologously Express hNav1.7 and the β1 Subunit
Preparation of membranes containing recombinantly expressed sodium channels: Frozen recombinant cell pellets are thawed on ice and diluted to 4 times the cell pellet weight with ice cold 50 mM Tris HCl, pH 7.4 buffer. The cell suspensions are homogenized on ice using a motorized glass dounce homogeniser. Homogenates are further diluted 8.4 times with ice cold 50 mM Tris HCl, pH 7.4 buffer and then centrifuged at 200×g at 4° C. for 15 minutes. The supernatants are collected and centrifuged at 10000×g at 4° C. for 50 min. The pellets are then re-suspended in 100 mM NaCl, 20 mM Tris HCl, pH 7.4 buffer containing 1% v/v protease inhibitors (Calbiochem) and re-homogenized on ice. The homogenized membranes are then processed through a syringe equipped with a 26 gauge needle. Protein concentrations arer determined by Bradford Assay and the membranes are stored at −80° C.
Saturation experiments. A competitive NaV1.7 inhibitor having a methyl group is tritiated. Three tritiums are incorporated in place of methyl hydrogens to generate [^3H]compound. Binding of this radioligand is performed in 5 mL borosilicate glass test tubes at room temperature. Binding is initiated by adding membranes to increasing concentrations of [^3H]compound in 100 mM NaCl, 20 mM Tris HCl, pH 7.4 buffer containing 0.01% w/v bovine serum albumin (BSA) for 18 h. Non-specific binding is determined in the presence of 1 μM unlabeled compound. After 18 h, the reactants are filtered through GF/C glass fiber filters presoaked in 0.5% w/v polyethylene imine. Filters are washed with 15 mL ice cold 100 mM NaCl, 20 mM Tris HCl, pH7.4 buffer containing 0.25% BSA to separate bound from free ligand. [^3H]compound bound to filters is quantified by liquid scintillation counting.
Binding reactions are performed in 96-well polypropylene plates at room temperature for 18 h. In 360 μL, membranes are incubated with […] [^3H]compound and increasing concentrations of Test Compound. Non-specific binding is defined in the presence of 1 μM unlabeled compound. Reactions are transferred and filtered through 96-well glass fiber/C filter plates presoaked with 0.5% polyethylene imine. The filtered reactions are washed 5 times with 200 μL ice cold buffer containing 0.25% BSA. Bound radioactivity is determined by liquid scintillation counting.
Data Analysis: For saturation experiments, non-specific binding is subtracted from total binding to provide specific binding and these values are recalculated in terms of pmol ligand bound per mg protein. Saturation curves are constructed and dissociation constants are calculated using the single site ligand binding model: Beq=(Bmax*X)/(X+Kd), where Beq is the amount of ligand bound at equilibrium, Bmax is the maximum receptor density, Kd is the dissociation constant for the ligand, and X is the free ligand concentration. For competition studies percent inhibition is determined and IC50 values are calculated using a 4 parameter logistic model (% inhibition=(A+((B−A)/(1+((x/C)^D)))) using XLfit, where A and B are the maximal and minimum inhibition respectively, C is the IC50 concentration and D is the (Hill) slope.
Example 93B. Tritiated Compound Binding to Membranes Isolated from Cells that Heterologous Express hNav1.7 and the β1 Subunit
Following the procedure described in Example 93A, and making modifications as required to: centrifuge supernatants at 100000×g instead of 10000×g; re-suspend pellets in a buffer containing 0.01% BSA in addition to 100 mM NaCl, 20 mM Tris HCl, pH 7.4 buffer, and 1% v/v proteasome inhibitors; and storing membranes at −80° C. in single use aliquots instead of pooled. […]
Target sequence in this assay (Q15858 whole entry, looked up): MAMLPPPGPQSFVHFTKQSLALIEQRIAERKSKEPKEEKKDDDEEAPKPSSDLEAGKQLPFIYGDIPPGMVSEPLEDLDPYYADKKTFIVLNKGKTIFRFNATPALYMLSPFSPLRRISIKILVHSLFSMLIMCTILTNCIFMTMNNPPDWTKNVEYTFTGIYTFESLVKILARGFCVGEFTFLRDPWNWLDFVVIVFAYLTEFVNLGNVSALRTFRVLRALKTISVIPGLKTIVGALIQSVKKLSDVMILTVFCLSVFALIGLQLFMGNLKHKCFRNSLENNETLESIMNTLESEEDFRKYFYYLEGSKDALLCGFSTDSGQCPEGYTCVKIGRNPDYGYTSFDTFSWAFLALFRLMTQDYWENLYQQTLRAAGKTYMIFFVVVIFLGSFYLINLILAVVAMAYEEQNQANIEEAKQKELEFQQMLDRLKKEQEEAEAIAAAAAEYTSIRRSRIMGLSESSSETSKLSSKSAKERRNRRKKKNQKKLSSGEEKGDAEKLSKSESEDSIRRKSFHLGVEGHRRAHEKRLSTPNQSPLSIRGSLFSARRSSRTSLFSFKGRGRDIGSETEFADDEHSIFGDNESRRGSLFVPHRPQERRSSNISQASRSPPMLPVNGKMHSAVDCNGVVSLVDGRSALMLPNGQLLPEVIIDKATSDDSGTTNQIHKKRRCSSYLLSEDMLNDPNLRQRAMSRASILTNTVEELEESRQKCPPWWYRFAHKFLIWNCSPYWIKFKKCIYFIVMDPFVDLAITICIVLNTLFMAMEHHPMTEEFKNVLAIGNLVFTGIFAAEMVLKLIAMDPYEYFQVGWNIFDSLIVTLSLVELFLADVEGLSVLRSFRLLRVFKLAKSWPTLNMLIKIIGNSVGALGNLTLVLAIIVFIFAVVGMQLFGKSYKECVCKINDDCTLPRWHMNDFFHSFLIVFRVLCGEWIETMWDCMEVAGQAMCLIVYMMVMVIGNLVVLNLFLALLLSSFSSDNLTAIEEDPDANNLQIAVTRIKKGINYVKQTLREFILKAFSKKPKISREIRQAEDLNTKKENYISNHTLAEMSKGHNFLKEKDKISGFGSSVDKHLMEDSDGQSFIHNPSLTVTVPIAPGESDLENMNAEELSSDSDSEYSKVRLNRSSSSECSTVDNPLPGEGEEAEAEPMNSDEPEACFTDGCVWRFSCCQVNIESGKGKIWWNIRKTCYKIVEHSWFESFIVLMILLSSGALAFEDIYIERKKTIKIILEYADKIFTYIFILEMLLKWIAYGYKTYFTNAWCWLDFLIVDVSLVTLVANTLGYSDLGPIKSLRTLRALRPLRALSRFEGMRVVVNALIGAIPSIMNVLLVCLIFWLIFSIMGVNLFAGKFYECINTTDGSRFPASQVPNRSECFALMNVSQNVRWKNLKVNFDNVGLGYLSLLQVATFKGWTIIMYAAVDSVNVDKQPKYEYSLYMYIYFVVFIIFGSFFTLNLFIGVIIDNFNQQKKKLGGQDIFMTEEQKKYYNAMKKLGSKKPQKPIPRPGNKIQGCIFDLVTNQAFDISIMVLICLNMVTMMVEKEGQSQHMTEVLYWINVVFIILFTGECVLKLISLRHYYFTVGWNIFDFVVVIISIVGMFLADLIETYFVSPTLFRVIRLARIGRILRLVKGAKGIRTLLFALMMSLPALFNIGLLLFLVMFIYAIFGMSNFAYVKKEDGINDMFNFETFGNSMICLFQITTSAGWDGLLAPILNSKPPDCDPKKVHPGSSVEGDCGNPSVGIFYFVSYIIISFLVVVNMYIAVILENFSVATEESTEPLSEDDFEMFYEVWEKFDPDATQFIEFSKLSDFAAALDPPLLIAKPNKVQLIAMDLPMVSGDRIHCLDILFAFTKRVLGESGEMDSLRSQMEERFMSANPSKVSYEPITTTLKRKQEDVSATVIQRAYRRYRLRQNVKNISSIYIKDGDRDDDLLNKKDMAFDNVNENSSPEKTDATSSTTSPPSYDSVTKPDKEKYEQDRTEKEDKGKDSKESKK
Target sequence in this assay (Q07699 whole entry partner, looked up): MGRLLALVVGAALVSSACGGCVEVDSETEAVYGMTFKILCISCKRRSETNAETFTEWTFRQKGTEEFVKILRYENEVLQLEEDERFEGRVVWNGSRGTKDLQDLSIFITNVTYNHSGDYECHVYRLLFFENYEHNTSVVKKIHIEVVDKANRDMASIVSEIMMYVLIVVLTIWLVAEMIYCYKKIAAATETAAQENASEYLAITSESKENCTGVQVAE

Assay [2] has as its target T1, hNav1.7. The assay is described as follows: Electrophysiological assay (EP), voltage clamp on Syncropatch 384PE, CHO cells stably expressing Nav1.7. It is filed as cell-based. The following applies: holding potential −50 mV, 7.5 min compound incubation, read-out: EP_SP hNav1.7 EVO IC50. The text has this: Example 93C. Electrophysiological Assay (EP) (In Vitro Assay)
Patch voltage clamp electrophysiology allows for the direct measurement and quantification of block of voltage-gated sodium channels (NaV's), and allows the determination of the time- and voltage-dependence of block which has been interpreted as differential binding to the resting, open, and inactivated states of the sodium channel (Hille, B., Journal of General Physiology (1977), 69: 497-515).
The following voltage clamp electrophysiology studies are performed on representative compounds using cells heterologously expressing Nav1.7 or Nav1.5 channels. cDNAsfor Nav1.7 (NM_002977) and Nav1.5 (AC137587) are stably expressed in Chinese Hamstr Ovary (CHO) cells and CHL (Chinese Hamster Lung) cells respectively. Sodium currents are measured in the whole-cell configuration using Syncropatch 384PE (Nanlon Technologies, Germany). 1NPC®-384 chips with custom medium resistance and single hole mode are used. Internal solution consists of (in mM): […], 10 […], 20 EGTA, and 10 Hepes (pH adjusted to 7.2); and external solution contains (in mM): 60 NMDG, 80 NaCl, 4 KCl, 1 MgCl2, 2 CaCl2, 2 D-Glucose monohydrate, 10 Hepes (pH adjusted to 7.4 with NaOH).
After system flushing, testing compounds are dissolved in external solution containing 0.1% Pluronic F-127. The chip is moved into the measuring head and the instrument primes the chip with external and internal solutions. 10 μl cells are added to the chip from a cell hotel, and a negative pressure of −50 mBar is applied to form a seal. Following treatment with seal enhancer solution and wash-off with external solution, negative pressure of −250 mbar is applied for 1 second to achieve the whole-cell configuration, followed by three washing steps in external solution. 20 μl of compounds is added to 40 μl in each well (1:3 dilution of compounds), and after mixing, 20 μl is removed so the volume is retained at 40 μl. After approximately 13 minutes recordings, 20 μl/well of 2 uM TTX, or 333 uM Tetracaine (for Nav1.5) is added to achieve full block.
For voltage protocol, an holding potential of −50 mV is applied during the whole experiment. A depolarizing step is applied to −10 mV for 10 ms, followed by a hyperpolarization step to −150 mV for 20 ms to allow channel recovery from inactivation. A second depolarizing step is applied from −150 mV to −10 mV for 10 ms, where currents are measured to derive blocking effects of compounds. Inhibition is determined based on 7.5 min of compound incubation.
Target sequence in this assay (Q15858 other isoform, or with tags, fused parts or gaps): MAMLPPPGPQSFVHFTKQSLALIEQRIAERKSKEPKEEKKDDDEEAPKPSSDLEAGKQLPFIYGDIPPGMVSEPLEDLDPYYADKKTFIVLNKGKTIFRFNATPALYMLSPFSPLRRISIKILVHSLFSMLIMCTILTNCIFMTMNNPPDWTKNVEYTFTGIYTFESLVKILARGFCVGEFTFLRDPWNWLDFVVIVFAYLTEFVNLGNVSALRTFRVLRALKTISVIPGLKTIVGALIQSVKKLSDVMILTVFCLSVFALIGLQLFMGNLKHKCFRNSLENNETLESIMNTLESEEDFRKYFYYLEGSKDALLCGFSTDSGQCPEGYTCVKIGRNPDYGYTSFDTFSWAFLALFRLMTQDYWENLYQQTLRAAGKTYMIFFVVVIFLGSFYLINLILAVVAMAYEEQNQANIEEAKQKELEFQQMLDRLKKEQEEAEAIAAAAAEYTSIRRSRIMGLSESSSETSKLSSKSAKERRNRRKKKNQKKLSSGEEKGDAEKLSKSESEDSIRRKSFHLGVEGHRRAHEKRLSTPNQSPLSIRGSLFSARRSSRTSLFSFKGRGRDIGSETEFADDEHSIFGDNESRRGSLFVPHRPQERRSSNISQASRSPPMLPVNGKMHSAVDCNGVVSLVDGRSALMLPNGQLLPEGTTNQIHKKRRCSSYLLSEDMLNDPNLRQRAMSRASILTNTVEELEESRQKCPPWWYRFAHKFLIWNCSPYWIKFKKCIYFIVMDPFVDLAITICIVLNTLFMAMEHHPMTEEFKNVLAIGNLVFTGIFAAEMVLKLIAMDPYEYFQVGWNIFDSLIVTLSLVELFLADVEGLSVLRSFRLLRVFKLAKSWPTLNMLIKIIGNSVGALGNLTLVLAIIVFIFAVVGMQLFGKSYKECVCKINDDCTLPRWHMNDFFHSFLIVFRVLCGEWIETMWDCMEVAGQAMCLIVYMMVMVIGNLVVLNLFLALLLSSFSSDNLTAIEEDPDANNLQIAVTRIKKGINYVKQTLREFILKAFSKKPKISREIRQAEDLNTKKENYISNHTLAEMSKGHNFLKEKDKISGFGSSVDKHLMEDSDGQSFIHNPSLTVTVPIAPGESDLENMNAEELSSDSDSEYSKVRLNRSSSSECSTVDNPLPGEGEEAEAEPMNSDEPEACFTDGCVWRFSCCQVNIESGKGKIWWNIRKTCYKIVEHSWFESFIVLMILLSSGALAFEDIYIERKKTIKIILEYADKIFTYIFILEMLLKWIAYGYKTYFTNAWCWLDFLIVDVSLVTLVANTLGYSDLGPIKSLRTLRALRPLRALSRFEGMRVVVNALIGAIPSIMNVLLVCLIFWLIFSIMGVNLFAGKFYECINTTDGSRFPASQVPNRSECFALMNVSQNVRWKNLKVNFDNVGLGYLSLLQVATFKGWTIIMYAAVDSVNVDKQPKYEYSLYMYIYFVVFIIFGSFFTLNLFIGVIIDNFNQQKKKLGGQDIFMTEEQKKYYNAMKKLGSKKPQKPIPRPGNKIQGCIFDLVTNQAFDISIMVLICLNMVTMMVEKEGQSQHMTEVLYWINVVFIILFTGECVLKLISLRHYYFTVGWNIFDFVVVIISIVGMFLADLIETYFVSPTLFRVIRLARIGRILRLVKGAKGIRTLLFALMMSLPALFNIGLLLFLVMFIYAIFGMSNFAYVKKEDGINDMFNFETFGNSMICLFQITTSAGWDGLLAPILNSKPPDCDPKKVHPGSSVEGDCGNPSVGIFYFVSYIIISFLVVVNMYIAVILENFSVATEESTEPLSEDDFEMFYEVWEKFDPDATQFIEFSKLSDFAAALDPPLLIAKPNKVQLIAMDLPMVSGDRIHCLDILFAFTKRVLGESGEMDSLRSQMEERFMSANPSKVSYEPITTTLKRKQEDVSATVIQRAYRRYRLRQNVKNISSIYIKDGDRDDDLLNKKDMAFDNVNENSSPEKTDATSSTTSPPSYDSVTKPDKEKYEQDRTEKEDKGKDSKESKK

The structures appear in SMILES notation. pIC50: −log10 of the molar value. Where a name gives a salt, the structure may show the parent alone.

A word on the pIC50: it is −log10 of the IC50, conventionally taken in molar units. For `CN(C)[C@H]1C[C@@H](c2cccc(F)c2)CC[C@@H]1Nc1cc(F)c(S(=O)(=O)Nc2ccncn2)cc1Cl` [Example 26, 5-Chloro-4-(((1S,2S,4S)-2-(dimethylamino)-4-(3-fluorophenyl)cyclohexyl)amino)-2-fluoro-N-(pyrimidin-4-yl)benzenesulfonamide formate], the negative logarithm of the IC50 (pIC50) at hNav1.7 [1] is 7.93; at hNav1.7 [2], 8.53.

Regarding `CN(C)[C@H]1C[C@@H](c2cccc(CC(F)(F)F)c2)CC[C@@H]1Nc1cc(F)c(S(=O)(=O)Nc2ccncn2)cc1Cl` [Example 27, 5-chloro-4-(((1S,2S,4S)-2-(dimethylamino)-4-(3-(2,2,2-trifluoroethyl)phenyl)cyclohexyl)-amino)-2-fluoro-N-(pyrimidin-4-yl)benzenesulfonamide], the pIC50 is 8.91 at hNav1.7 [1] and 8.88 on hNav1.7 [2].

For `CN(C)[C@H]1C[C@@H](c2cccc(C(F)(F)F)c2)CC[C@@H]1Nc1ccc(S(=O)(=O)Nc2ccncn2)cc1F` [Example 89, 4-(((1S,2S,4S)-2-(Dimethylamino)-4-(3-(trifluoromethyl)phenyl)cyclohexyl)amino)-3-fluoro-N-(pyrimidin-4-yl)benzenesulfonamide formate], the pIC50 on hNav1.7 [1] is 7.91.

For the compound `O=S(=O)(Nc1ccncn1)c1cc(Cl)c(O[C@H]2CC[C@H](c3cccc(OC(F)(F)F)c3)C[C@@H]2N2CCCC2)cc1F` [Example 64, 5-chloro-2-fluoro-N-(pyrimidin-4-yl)-4-(((1S,2S,4S)-2-(pyrrolidin-1-yl)-4-(3-(trifluoromethoxy)-phenyl)cyclohexyl)oxy)benzenesulfonamide formate], the results for the negative-log IC50 (pIC50) at hNav1.7 [1] and on hNav1.7 [2] were 8.86 and 9.26, respectively.

With `CN(C)[C@H]1C[C@@H](c2ccc(Cl)c(Cl)c2)CC[C@@H]1Nc1cc(F)c(S(=O)(=O)Nc2ccncn2)cc1Cl` [Example 4, 5-Chloro-4-(((1S,2S,4S)-4-(3,4-dichlorophenyl)-2-(dimethylamino)cyclohexyl)amino)-2-fluoro-N-(pyrimidin-4-yl)benzenesulfonamide], the results for the pIC50 at hNav1.7 [1] and at hNav1.7 [2] were 8.92 and 9.52, respectively.

As to `CN1CC(N(C)[C@H]2C[C@@H](c3cccc(C(F)(F)F)c3)CC[C@@H]2Nc2cc(F)c(S(=O)(=O)Nc3ccncn3)cc2Cl)C1` [Example 45, 5-chloro-2-fluoro-4-(((1S,2S,4S)-2-(methyl(1-methylazetidin-3-yl)amino)-4-(3-(trifluoromethyl)phenyl)cyclohexyl)amino)-N-(pyrimidin-4-yl)benzenesulfonamide], the figures for the pIC50 on hNav1.7 [1] and at hNav1.7 [2] were 9.40 and 9.62, respectively.

For the compound `CN(C)[C@H]1C[C@@H](c2cccc(C(F)(F)F)c2)CC[C@@H]1Oc1cc(F)c(S(=O)(=O)Nc2ccncn2)cc1F` [Example 48, 4-(((1S,2S,4S)-2-(dimethylamino)-4-(3-(trifluoromethyl)phenyl)cyclohexyl)oxy)-2,5-difluoro-N-(pyrimidin-4-yl)benzenesulfonamide formate], the pIC50 at hNav1.7 [1] is 7.42; at hNav1.7 [2], 8.48.

Turning to `O=S(=O)(Nc1ccncn1)c1cc(Cl)c(O[C@H]2CC[C@H](c3cccc(C(F)(F)F)c3)C[C@@H]2N2CCCC2)cc1F` [Example 60, 5-chloro-2-fluoro-N-(pyrimidin-4-yl)-4-(((1S,2S,4S)-2-(pyrrolidin-1-yl)-4-(3-(trifluoromethyl)-phenyl)cyclohexyl)oxy)benzenesulfonamide formate], the pIC50 is 8.80 on hNav1.7 [1] and 9.13 on hNav1.7 [2].

For the compound `CN(C)[C@H]1C[C@@H](c2cc(Cl)cc(Cl)c2)CC[C@@H]1Oc1cc(F)c(S(=O)(=O)Nc2ccncn2)cc1Cl` [Example 82, 5-chloro-4-(((1S,2S,4S)-4-(3,5-dichlorophenyl)-2-(dimethylamino)cyclohexyl)oxy)-2-fluoro-N-(pyrimidin-4-yl)benzenesulfonamide formate], the pIC50 is 8.80 on hNav1.7 [1] and 9.45 at hNav1.7 [2].

On to `CN(C)[C@H]1C[C@@H](c2cccc(C3(C(F)(F)F)CC3)c2)CC[C@@H]1Nc1cc(F)c(S(=O)(=O)Nc2ccncn2)cc1Cl` [Example 18, 5-chloro-4-(((1S,2S,4S)-2-(dimethylamino)-4-(3-(1-(trifluoromethyl)cyclopropyl)phenyl)-cyclohexyl)amino)-2-fluoro-N-(pyrimidin-4-yl)benzenesulfonamide], for which the figures for the pIC50 on hNav1.7 [1] and on hNav1.7 [2] were 9.17 and 9.58, respectively.

On to `CN(C1CCC1)[C@H]1C[C@@H](c2cccc(C(F)(F)F)c2)CC[C@@H]1Nc1cc(F)c(S(=O)(=O)Nc2ccncn2)cc1F` [Example 40, 4-(((1S,2S,4S)-2-(cyclobutyl(methyl)amino)-4-(3-(trifluoromethyl)phenyl)cyclohexyl)amino)-2,5-difluoro-N-(pyrimidin-4-yl)benzenesulfonamide formate], for which the pIC50 at hNav1.7 [1] was 8.10; on hNav1.7 [2], 9.04.

`CN(C)[C@H]1C[C@@H](c2cccc(Cl)c2Cl)CC[C@@H]1Oc1cc(F)c(S(=O)(=O)Nc2ccncn2)cc1Cl` [Example 75, 5-chloro-4-(((1S,2S,4S)-4-(2,3-dichlorophenyl)-2-(dimethylamino)cyclohexyl)oxy)-2-fluoro-N-(pyrimidin-4-yl)benzenesulfonamide]: the pIC50 on hNav1.7 [1] is 7.30; on hNav1.7 [2] it was 8.58.

For the compound `O=S(=O)(Nc1ccncn1)c1cc(F)c(N[C@H]2CC[C@H](c3cccc(C(F)(F)F)c3F)C[C@@H]2N2CCCC2)cc1F` [Example 70, 2,5-difluoro-4-(((1S,2S,4S)-4-(2-fluoro-3-(trifluoromethyl)phenyl)-2-(pyrrolidin-1-yl)cyclohexyl)-amino)-N-(pyrimidin-4-yl)benzenesulfonamide hydrochloride], the pIC50 on hNav1.7 [1] was 8.14; at hNav1.7 [2] it was 9.02.

For the compound `O=S(=O)(Nc1ccncn1)c1cc(Cl)c(O[C@H]2CC[C@H](c3cccc(C(F)(F)F)c3)C[C@@H]2N2CCC(O)C2)cc1F` (some centres unmarked) [Example 90, formate], at hNav1.7 [2], the negative-log IC50 (pIC50) is 9.24.

The values are drawn from patent US11028075B2, “Therapeutic compounds and methods of use thereof” (GENENTECH, INC., priority 2018, dated 2021).
